Assay results from patent US10125095B2, “Abscisic acid derivative” (NATIONAL UNIVERSITY CORPORATION SHIZUOKA UNIVERSITY, priority 2014, dated 2018).

Assays:
[1] = system: seeds of thale cress (Arabidopsis thaliana, Col-0); assay: Thale cress seed germination test; assay type: in vivo
Procedure: Seeds of thale cress (Arabidopsis thaliana, Col-0) were immersed in 500 μL of an aqueous solution of 70% ethanol for 30 minutes, subsequently in 500 μL of a 100% ethanol solution for 1 minute, washed five times in 1 mL of distilled water, then immersed in distilled water and, in a dark place, vernalized at 4° C. for 3 days. A solution of the sample in methanol was put in a 1.5 mL-microtube, and methanol was removed therefrom under reduced pressure. An aqueous solution of 0.5% agar (containing ½ MS medium inorganic salts) at 70° C. was added thereto and stirred, and subsequently the obtained mixture was placed in a 96-well plate to prepare the medium containing the sample. All samples were prepared so as to have a concentration of 3 μM of the compound in Examples 1 to 9 and Comparative Example 1. Further, when ABA is applied, the ABA concentration was adjusted to 0.3 μM. 20 to 30 vernalized seeds of thale cress were planted in each well and cultured at 22° C. under continuous light to monitor the number of seeds germinated over time. The germination rate was calculated by the following formula (1). Note that those cultured in medium prepared using methanol in the same manner were used as controls. […] Germination rate (%)=Number of seeds germinated/Number of seeds planted×100 (1)
The same test was carried out as in Test Example 1 with the concentrations of the compound of Example 1 for treatment varying from 0.3 μM to 30 μM.
Similarly, the same test was carried out with the concentrations of the compound of Example 2 for treatment varying from 0.3 μM to 30 μM.
The same test was carried out as in Test Example 2 with the concentrations of the compounds for treatment varying from 0.3 μM to 3 μM to compare the recovery effects on seed germination rate of the compound of Example 1 and the compound of Comparative Example 1.

PYR1 = biological target: T1, PYR1 (Arabidopsis thaliana, UniProt O49686); assay: Protein dephosphorylation enzyme activity test, PYR1; assay type: biochemical, thale cress; conditions: control = 100%
T1 construct: 6xHis (N); made in house; host or cells: Escherichia coli BL21-codonplus(DE3)-RIPL (PYL); BL21(DE3)pLysS (HAB1)
T1 sequence (O49686 1-191): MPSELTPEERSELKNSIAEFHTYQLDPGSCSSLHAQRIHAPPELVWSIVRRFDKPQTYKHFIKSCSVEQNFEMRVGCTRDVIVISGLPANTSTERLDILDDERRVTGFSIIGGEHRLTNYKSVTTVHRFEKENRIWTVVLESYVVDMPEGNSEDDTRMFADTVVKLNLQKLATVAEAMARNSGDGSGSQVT
Procedure: A plasmid (pGex-2T-GST-HAB1 or pET28-6×His-PYL) encoded with PYR/PYL/RCAR proteins (PYL, abscisic acid receptor) or protein dephosphorylation enzyme HAB1 of thale cress was transformed to Escherichia coli (HAB1:BL21(DE3)pLysS, PYL:BL21-codonplus(DE3)-RIPL). Isopropyl-β-thiogalactopyranoside was added to the culture broth, which had been subjected to pre-culture (30° C., 180 rpm, 15 hours) and main culture (30° C., 180 rpm, 4 hours), and the protein-expressed (16° C., 150 rpm, 18 hours) crude enzyme solution was purified using FPLC thereby preparing the recombined PYL (PYR1, PYL1-6, PYL8-10) and HAB1. β-Mercaptoethanol, a manganese chloride aqueous solution, HAB1, PYL, a solution of the sample in dimethylsulfoxide and ultrapure water were sequentially added to a 96-well plate, allowed to stand at 22° C. for 30 minutes. Subsequently p-nitrophenylphosphate, which is the artificial substrate of HAB1, was added thereto to start the reaction, and the plate was placed in a microplate reader (TECAN, Infinite™ N200 NanoQuant). The absorbance at 405 nm due to p-nitrophenol, which is the hydrolysate of p-nitrophenylphosphate, was measured 3 minutes later from the reaction initiation, and HAB1 activity was calculated by the following formula (2). Note that the fraction to which only dimethylsulfoxide was added was considered to be the control and the activity thereof was defined as 100%. […] HAB1 specific activity (%)=Absorbance when sample was added/Absorbance of control×100 (2)

recombined PYL5 = biological target: T2, recombined PYL5 (Arabidopsis thaliana, UniProt Q9FLB1); assay: Bonding affinity measurement using an isothermal titration calorimeter; assay type: binding, thale cress; conditions: ITC, 20° C., sodium phosphate buffer
T2 construct: 6xHis (N); made in house; host or cells: Escherichia coli BL21-codonplus(DE3)-RIPL
T2 sequence (Q9FLB1 1-203): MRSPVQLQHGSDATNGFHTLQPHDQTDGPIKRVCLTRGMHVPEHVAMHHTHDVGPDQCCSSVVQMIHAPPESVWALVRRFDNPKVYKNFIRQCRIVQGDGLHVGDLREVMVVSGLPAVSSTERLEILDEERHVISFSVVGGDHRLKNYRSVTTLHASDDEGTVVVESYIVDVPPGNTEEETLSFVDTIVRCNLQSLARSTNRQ
Procedure: A sodium phosphate buffer solution of a recombined PYL5 was prepared in the same procedure as in Test Example 5, and put in a reaction cell of an isothermal titration calorimeter (GE Healthcare, MicroCal iTC200), and a sodium phosphate buffer solution of the compound of Example 1 was put in the syringe. Then, the calorimeter was set to 20° C. and the measurement was carded out. The same measurement as above was also carried out for the compounds of Examples 7 to 9.

[2] = 3 μM compound co-applied with 0.3 μM ABA

HAB1 Specific activity (%) PYR1 (PYR1; ABA + compound) [%] | HAB1 Specific activity (%) PYR1 (PYR1; sample alone) [%] | Kd (recombined PYL5) [nM] | ΔG (recombined PYL5) [kcal/mol] | ΔH (recombined PYL5) [kcal/mol] | −TΔS (recombined PYL5) [kcal/mol] | Structure (SMILES) | Germination rate (%) 24 Hours later [1, 2] [%] | Germination rate (%) 36 Hours later [1, 2] [%] | Germination rate (%) 48 Hours later [1, 2] [%] | Germination rate (%) 60 Hours later [1, 2] [%] | Germination rate (%) 24 Hours later ([1]; compound alone, 3 μM) [%] | Germination rate (%) 36 Hours later ([1]; compound alone, 3 μM) [%] | Germination rate (%) 48 Hours later ([1]; compound alone, 3 μM) [%] | Germination rate (%) 60 Hours later ([1]; compound alone, 3 μM) [%]
62.9 | 105 | 180 ± 10 | -9.0 ± 0.1 | -4.9 ± 0.1 | -4.1 | CC1=C[C@@H](OCC#Cc2ccc(S(F)(F)(F)(F)F)cc2)CC(C)(C)[C@@]1(O)/C=C/C(C)=C\C(=O)O [Example 8] | 0 | 0 | 23 | 89 | 0 | 60 | 100 | 100
32.1 | 87.8 | 360 ± 70 | -8.6 ± 0.1 | -6.7 ± 0.1 | -2.0 | CC1=C[C@@H](OCCCc2ccccc2)CC(C)(C)[C@@]1(O)/C=C/C(C)=C\C(=O)O [Example 9] | 0 | 60 | 100 | 100 | 1 | 88 | 100 | 100

Second part, the compound before the results:

Structure (SMILES) | HAB1 Specific activity (%) PYR1 (PYR1; ABA + compound) [%] | HAB1 Specific activity (%) PYR1 (PYR1; sample alone) [%] | Kd (recombined PYL5) [nM] | ΔG (recombined PYL5) [kcal/mol] | ΔH (recombined PYL5) [kcal/mol] | −TΔS (recombined PYL5) [kcal/mol] | Germination rate (%) 24 Hours later [1, 2] [%] | Germination rate (%) 36 Hours later [1, 2] [%] | Germination rate (%) 48 Hours later [1, 2] [%] | Germination rate (%) 60 Hours later [1, 2] [%] | Germination rate (%) 24 Hours later ([1]; compound alone, 3 μM) [%] | Germination rate (%) 36 Hours later ([1]; compound alone, 3 μM) [%] | Germination rate (%) 48 Hours later ([1]; compound alone, 3 μM) [%] | Germination rate (%) 60 Hours later ([1]; compound alone, 3 μM) [%]
C#CCO[C@@H]1C=C(C)[C@](O)(/C=C/C(C)=C\C(=O)O)C(C)(C)C1 [Example 3, (2Z,4E)-5-((1S,4S)-1-hydroxy-2,6,6-trimethyl-4-(prop-2-yn-1-yloxy)cyclohex-2-en-1-yl)-3-methylpenta-2,4-dienoic acid] |  |  |  |  |  |  | 0 | 6.9 | 20.7 | 48.3 | 0 | 13.3 | 60 | 71.1
CC1=C[C@@H](OCC#Cc2ccc(C(F)(F)F)cc2)CC(C)(C)[C@@]1(O)/C=C/C(C)=C\C(=O)O [Example 4, (2Z,4E)-5-((1S,4S)-1-hydroxy-2,6,6-trimethyl-4-((3-(4-trifluoromethyl)phenylprop-2-yn-1-yl)oxy)cyclohex-2-en-1-yl)-3-methylpenta-2,4-dienoic acid] | 36.7 | 55.4 |  |  |  |  | 0 | 29 | 58 | 100 | 8 | 33 | 75 | 92
COc1ccc(C#CCO[C@@H]2C=C(C)[C@](O)(/C=C/C(C)=C\C(=O)O)C(C)(C)C2)cc1 [Example 5, (2Z,4E)-5-((1S,4S)-1-hydroxy-2,6,6-trimethyl-4-((3-(4-methoxy)phenylprop-2-yn-1-yl)oxy)cyclohex-2-en-1-yl)-3-methylpenta-2,4-dienoic acid] | 50.5 | 92.3 |  |  |  |  | 0 | 30 | 67 | 100 | 5 | 37 | 79 | 95
CC(=O)c1ccc(C#CCO[C@@H]2C=C(C)[C@](O)(/C=C/C(C)=C\C(=O)O)C(C)(C)C2)cc1 [Example 6, (2Z,4E)-5-((1S,4S)-1-hydroxy-2,6,6-trimethyl-4-((3-(4-acetyl)phenylprop-2-yn-1-yl)oxy)cyclohex-2-en-1-yl)-3-methylpenta-2,4-dienoic acid] | 41.5 | 87.9 |  |  |  |  | 7 | 28 | 52 | 72 | 0 | 17 | 75 | 92
